According to paper PMC9516332 (Frontiers in Oncology, 2022):

Key:
Assay in all cases: Kinase panel profiling at 1 µmol/L (MSA or IMAP), percentage inhibition
Type in all cases: biochemical
[1] = target: panel of 255 wild-type kinases (Homo sapiens, UniProt Q9H2X6); conditions: kinase HIPK2; 1 µmol/L single concentration; read-out: %-inhibition at 1 µmol/L, HIPK2
[2] = target: panel of 255 wild-type kinases (Homo sapiens, UniProt Q16539); conditions: p38α; 1 µmol/L single concentration; read-out: %-inhibition, p38α
[3] = target: T1, panel of 255 wild-type kinases (Homo sapiens, UniProt P15735); conditions: kinase PHKG2; 1 µmol/L single concentration; read-out: %-inhibition at 1 µmol/L, PHKG2
T1 sequence (P15735 1-406): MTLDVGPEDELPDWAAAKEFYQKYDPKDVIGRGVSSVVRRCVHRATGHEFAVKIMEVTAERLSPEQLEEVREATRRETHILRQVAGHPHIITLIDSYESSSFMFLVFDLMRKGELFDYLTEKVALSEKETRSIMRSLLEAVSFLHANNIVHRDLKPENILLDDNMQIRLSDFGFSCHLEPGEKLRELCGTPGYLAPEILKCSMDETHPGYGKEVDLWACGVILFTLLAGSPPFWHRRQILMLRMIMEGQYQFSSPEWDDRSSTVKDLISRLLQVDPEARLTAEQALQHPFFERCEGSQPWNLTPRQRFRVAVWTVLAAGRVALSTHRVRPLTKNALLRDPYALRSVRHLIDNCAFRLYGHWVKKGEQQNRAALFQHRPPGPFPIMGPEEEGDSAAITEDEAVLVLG

[4] = target: panel of 255 wild-type kinases (Homo sapiens, UniProt Q9HC98); conditions: NEK6; 1 µmol/L single concentration; read-out: %-inhibition, NEK6
[5] = target: panel of 255 wild-type kinases (Homo sapiens, UniProt P08631); conditions: kinase HCK; 1 µmol/L single concentration; read-out: %-inhibition at 1 µmol/L, HCK
[6] = target: T2, panel of 255 wild-type kinases (Homo sapiens, UniProt Q13976); conditions: kinase PGK; 1 µmol/L single concentration; read-out: %-inhibition at 1 µmol/L, PGK
T2 sequence (Q13976 1-671): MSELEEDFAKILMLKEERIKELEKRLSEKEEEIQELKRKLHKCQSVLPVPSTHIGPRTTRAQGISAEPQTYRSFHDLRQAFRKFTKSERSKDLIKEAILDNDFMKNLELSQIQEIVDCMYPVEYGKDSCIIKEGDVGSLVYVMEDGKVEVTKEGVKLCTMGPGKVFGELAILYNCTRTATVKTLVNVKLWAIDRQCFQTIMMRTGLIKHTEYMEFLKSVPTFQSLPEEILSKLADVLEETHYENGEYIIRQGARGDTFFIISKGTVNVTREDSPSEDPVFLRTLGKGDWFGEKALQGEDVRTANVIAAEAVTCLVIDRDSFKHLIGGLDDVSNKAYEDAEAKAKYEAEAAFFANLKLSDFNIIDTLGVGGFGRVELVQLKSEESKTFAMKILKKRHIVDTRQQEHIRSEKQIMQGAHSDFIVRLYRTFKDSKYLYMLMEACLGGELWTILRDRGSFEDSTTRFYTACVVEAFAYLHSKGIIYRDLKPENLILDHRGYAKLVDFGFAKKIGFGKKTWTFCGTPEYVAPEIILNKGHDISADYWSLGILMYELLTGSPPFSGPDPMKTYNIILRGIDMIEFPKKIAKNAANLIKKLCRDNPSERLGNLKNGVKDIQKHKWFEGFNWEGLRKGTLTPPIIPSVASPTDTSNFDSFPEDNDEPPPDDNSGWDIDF

[7] = target: panel of 255 wild-type kinases (Homo sapiens, UniProt P42685); conditions: kinase FRK; 1 µmol/L single concentration; read-out: %-inhibition at 1 µmol/L, FRK
[8] = target: panel of 255 wild-type kinases (Homo sapiens, UniProt P08069); conditions: kinase IGF1R; 1 µmol/L single concentration; read-out: %-inhibition at 1 µmol/L, IGF1R
[9] = target: T3, panel of 255 wild-type kinases (Homo sapiens, UniProt P29323); conditions: kinase EPHB2; 1 µmol/L single concentration; read-out: %-inhibition at 1 µmol/L, EPHB2
T3 sequence (P29323 19-1055): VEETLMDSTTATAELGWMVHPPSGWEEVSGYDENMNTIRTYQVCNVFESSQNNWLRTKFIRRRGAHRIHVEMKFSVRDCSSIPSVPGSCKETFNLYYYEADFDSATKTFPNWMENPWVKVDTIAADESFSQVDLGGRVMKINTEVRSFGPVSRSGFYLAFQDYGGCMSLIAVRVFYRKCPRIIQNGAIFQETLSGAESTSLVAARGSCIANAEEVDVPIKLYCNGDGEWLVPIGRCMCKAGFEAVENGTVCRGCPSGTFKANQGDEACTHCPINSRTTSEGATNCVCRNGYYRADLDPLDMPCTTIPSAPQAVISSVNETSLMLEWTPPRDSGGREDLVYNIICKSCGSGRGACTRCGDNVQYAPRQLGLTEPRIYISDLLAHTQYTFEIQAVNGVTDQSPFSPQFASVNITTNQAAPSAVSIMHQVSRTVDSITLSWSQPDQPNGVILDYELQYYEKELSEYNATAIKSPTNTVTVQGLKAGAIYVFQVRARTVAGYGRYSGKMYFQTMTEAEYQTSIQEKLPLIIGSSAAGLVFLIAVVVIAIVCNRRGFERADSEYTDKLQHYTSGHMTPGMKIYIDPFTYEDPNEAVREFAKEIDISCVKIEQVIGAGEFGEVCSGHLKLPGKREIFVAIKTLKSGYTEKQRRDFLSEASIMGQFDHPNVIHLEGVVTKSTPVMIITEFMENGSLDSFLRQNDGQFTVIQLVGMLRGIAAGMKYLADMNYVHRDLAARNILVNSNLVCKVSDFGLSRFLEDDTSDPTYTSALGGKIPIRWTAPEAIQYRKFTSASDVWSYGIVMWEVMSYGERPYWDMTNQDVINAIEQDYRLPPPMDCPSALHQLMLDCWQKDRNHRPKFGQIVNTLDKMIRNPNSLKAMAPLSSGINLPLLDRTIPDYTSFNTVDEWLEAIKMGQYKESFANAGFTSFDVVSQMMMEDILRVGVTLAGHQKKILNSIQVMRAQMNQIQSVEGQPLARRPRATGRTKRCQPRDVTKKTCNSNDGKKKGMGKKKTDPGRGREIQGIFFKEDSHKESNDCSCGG

[10] = target: panel of 255 wild-type kinases (Homo sapiens, UniProt Q13464); conditions: kinase ROCK1; 1 µmol/L single concentration; read-out: %-inhibition at 1 µmol/L, ROCK1

SMILES	inhibition at 1 µM [1]	inhibition at 1 µM [2]	inhibition at 1 µM [3]	inhibition at 1 µM [4]	inhibition at 1 µM [5]	inhibition at 1 µM [6]	inhibition at 1 µM [7]	inhibition at 1 µM [8]	inhibition at 1 µM [9]	inhibition at 1 µM [10]
COc1ccc(CN2C3CC2CN(c2ccc(-c4cc(OCC(C)(C)O)cn5ncc(C#N)c45)cn2)C3)cn1 [selpercatinib]	0.223%	-0.132%	6.5%	0.41%	58%	0.302%	13%	3%	64%	3.51%
Cc1nc(NC(=O)N2CCC[C@H]2C(N)=O)sc1-c1ccnc(C(C)(C)C(F)(F)F)c1 [alpelisib]	3.33%	2.59%	1.64%	0.343%	4.56%	-3%	-2.26%	-0.261%	1.07%	-0.415%
CCN1C(=O)N(c2c(F)c(OC)cc(OC)c2F)Cc2cnc3[nH]c(CN4CCOCC4)cc3c21 [pemigatinib]	2.55%	14%	8%	-2.6%	31%	-1.82%	10%	7%	-0.799%	-2.6%
Cn1cc(-c2cc3c(N4CCN(c5ncc([C@@](C)(N)c6ccc(F)cc6)cn5)CC4)ncnn3c2)cn1 [avapritinib]	4%	0.843%	5.4%	-1.13%	52%	-2.58%	25%	3.41%	31%	2%

Second part, the compound after the results:

inhibition at 1 µM [1]	inhibition at 1 µM [2]	inhibition at 1 µM [3]	inhibition at 1 µM [4]	inhibition at 1 µM [5]	inhibition at 1 µM [6]	inhibition at 1 µM [7]	inhibition at 1 µM [8]	inhibition at 1 µM [9]	inhibition at 1 µM [10]	SMILES
6%	1.53%	-0.185%	0.486%	-3%	0.26%	-2.17%	2.31%	2.14%	-0.767%	Cc1cc(Nc2ncnc3ccc(NC4=NC(C)(C)CO4)cc23)ccc1Oc1ccn2ncnc2c1 [tucatinib]
2.71%	3.34%	3.3%	-1.5%	4%	-2%	-3%	5.57%	-0.445%	-1.15%	Cn1cnc2c(F)c(Nc3ccc(Br)cc3Cl)c(C(=O)NOCCO)cc21 [selumetinib]
4.76%	39%	11%	-4.7%	57%	4%	70%	3.29%	51%	-2.68%	COc1cc2ncnc(Nc3ccc(F)c(Cl)c3)c2cc1NC(=O)/C=C/CN1CCCCC1 [dacomitinib]
11%	3%	2.24%	-0.0459%	82%	13%	82%	10%	35%	3.43%	CO[C@]1(C(=O)N[C@@H](C)c2ccc(-n3cc(F)cn3)nc2)CC[C@H](c2nc(C)cc(Nc3cc(C)[nH]n3)n2)CC1 [pralsetinib]
